Measured values published in article PMC4133117 (Biochemical pharmacology, 2014).
pEC50: −log10 of the molar value.

How the values were obtained:
ABCB1 [1] = biological target: T1, ABCB1 (Homo sapiens, UniProt P08183)
ABCB1 [2] = biological target: T1, ABCB1; test: vanadate-sensitive ATPase stimulation in crude membranes; type: biochemical

T1 sequence (P08183 whole entry): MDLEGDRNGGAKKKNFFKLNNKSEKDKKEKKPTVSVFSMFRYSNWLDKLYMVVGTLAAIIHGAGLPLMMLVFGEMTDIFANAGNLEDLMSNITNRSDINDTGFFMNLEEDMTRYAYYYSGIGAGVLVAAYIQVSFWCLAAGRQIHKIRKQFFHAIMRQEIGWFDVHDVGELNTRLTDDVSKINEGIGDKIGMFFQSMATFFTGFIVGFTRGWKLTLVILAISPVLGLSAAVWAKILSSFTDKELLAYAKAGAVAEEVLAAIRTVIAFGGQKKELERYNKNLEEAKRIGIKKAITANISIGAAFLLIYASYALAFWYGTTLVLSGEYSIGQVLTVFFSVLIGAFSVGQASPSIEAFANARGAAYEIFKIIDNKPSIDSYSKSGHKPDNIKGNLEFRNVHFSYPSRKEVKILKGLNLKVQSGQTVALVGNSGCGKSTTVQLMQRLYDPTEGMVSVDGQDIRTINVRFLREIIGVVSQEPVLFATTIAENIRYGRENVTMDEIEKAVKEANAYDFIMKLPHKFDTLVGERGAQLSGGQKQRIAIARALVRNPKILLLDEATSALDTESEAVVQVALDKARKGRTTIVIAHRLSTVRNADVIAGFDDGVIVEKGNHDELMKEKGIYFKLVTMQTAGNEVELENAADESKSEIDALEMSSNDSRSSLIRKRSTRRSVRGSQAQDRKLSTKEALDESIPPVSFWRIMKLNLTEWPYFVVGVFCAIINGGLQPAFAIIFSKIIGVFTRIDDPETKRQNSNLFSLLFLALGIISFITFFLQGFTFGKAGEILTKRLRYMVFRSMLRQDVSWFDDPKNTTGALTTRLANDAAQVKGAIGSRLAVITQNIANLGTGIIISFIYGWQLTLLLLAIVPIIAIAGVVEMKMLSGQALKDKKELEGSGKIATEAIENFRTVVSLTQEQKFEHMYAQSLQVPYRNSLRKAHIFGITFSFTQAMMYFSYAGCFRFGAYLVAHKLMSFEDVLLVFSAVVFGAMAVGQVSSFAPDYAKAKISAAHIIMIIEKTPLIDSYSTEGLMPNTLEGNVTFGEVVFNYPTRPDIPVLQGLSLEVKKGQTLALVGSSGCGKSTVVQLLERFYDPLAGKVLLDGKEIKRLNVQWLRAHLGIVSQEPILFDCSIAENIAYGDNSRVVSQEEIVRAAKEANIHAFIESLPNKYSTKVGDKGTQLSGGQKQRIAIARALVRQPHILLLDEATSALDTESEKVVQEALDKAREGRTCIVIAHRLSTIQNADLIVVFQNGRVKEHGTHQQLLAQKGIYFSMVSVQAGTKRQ

SMILES | radiolabelled efflux assay in KB-C2 vs KB-3-1 cells (ABCB1 [1]) | pEC50 (ABCB1 [2])
CC(=O)O[C@H]1C(=O)[C@@]2(C)[C@H]([C@H](OC(=O)c3ccccc3)[C@]3(O)C[C@H](OC(=O)[C@H](O)[C@@H](NC(=O)c4ccccc4)c4ccccc4)C(C)=C1C3(C)C)[C@]1(OC(C)=O)CO[C@@H]1C[C@@H]2O [paclitaxel] | significantly lower compared to that of parental KB-3-1 cells due to active transport of the [^3H]-paclitaxel by the ABCB1 transporter | –
CC1(C)CNc2cc(NC(=O)c3cccnc3NCc3ccncc3)ccc21 [motesanib] | – | 6.05
